Experimental data taken from patent publication US6479476B1, “19-nor steroids substituted in position 11β, preparation method and intermediates, application as medicines and pharmaceutical compositions containing them” (Aventis Pharma S.A., priority 1997, dated 2002).
Like-named read-outs stand apart in the source and are kept apart here.

Columns and labels:
[1] = tested on: human mammary cells MCF-7; experiment: Effect on the proliferation of mammary cells (MCF-7, DNA quantitation after 7 days); assay type: cell-based; set-up: key: The molecules inducing a cellular growth identical to that observed with the solvent alone are classed “inactivated”; Inhibitor: those inducing cellular growth lower than that observed with the solvent are classed “inhibitor”; *Mixed: slight agonist activity in very weak concentrations and inhibitory activity in stronger concentrations; settings: MCF-7 cells in steroid-free medium, 7 days of culture, DNA analysis; compared with oestradiol at 10^-10M = 100% agonist activity
Text: 1—Effect on the Proliferation of Mammary Cells The proliferative activity of the molecules is studied comparatively with that of oestradiol on the human mammary cells MCF-7 in culture. To highlight the agonist effect of oestradiol and/or the molecules tested, the culture medium for the maintenance of the cells (rich in growth factors and in steroids) is replaced by a more impoverished medium, amongst others lacking in steroids (DMEM supplemented by 5% of serum with steroid removed and without phenol red). The cells undergo this deprivation two days before the start of the trial. After 7 days of culture in the presence of the products to be studied, the cellular proliferation is evaluated by quantitive analysis of the DNA. In each trial, the effect of the oestradiol at 10^−10M (cellular growth in the presence of oestradiol less cellular growth in the presence of solvent) determines the agonist activity at 100%. The activity of the molecules is evaluated in comparison to this internal control. The molecules inducing a cellular growth identical to that observed with the solvent alone are classed “inactivated”, those inducing cellular growth lower than that observed with the solvent are classed “inhibitor”.

[2] = biological target: T1, recombinant human oestrogen receptor (Homo sapiens, UniProt P03372); experiment: Affinity for the human oestrogen receptor (REH), displacement of tritiated oestradiol, relative affinity ARL; assay type: binding
T1 construct: comprising the coding region for the human oestrogen receptor of wild type; made in house; host or cells: SF9 insect cells (ATCC CRL1711), baculovirus
T1 sequence (P03372 1-595): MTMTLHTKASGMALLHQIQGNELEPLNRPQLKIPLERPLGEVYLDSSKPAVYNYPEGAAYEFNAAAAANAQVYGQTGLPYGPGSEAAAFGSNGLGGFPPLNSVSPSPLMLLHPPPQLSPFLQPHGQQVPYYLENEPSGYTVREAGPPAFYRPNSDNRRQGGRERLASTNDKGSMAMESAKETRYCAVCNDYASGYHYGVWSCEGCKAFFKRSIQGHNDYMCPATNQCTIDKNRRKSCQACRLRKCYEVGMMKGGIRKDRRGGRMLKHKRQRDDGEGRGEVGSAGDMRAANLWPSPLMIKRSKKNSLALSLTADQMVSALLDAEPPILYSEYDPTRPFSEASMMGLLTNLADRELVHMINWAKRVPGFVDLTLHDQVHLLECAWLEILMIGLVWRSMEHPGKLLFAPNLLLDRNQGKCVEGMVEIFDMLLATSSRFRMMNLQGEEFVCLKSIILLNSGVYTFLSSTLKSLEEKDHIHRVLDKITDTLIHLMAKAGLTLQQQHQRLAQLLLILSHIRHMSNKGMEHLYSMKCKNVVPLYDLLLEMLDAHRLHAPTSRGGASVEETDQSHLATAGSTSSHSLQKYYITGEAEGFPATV
Text: 2—Affinity of the Human Oestrogen Receptor (REH)
A cytosolic extract of SF9 cells containing the recombinant human oestrogen receptor is obtained by over-expression in an insect-Baculo-viros system of cells, according to the general methodology described by N. R. WEBB et al. (Journal of Methods in cell and Molecular Biology, (1990) vol 2 n°4, 173-188) and whose application is described for the expression of human hormonal receptors, for example the human glucocorticoid receptor (G.SRINIVASAN et al. Molecular Endocrinology (1990) vol 4 n°2 209-216).
The BaculoGold Transfection Kit (PharMingen, reference 21000K) is used to generate the recombinant baculovirus containing the fragment of DNAc described in the expression vector HEGO by L. TORA et al. (The EMBO Journal (1989) vol 8 n°7 1981-1986) comprising the coding region for the human oestrogen receptor of wild type with glycine in position 400.
The recombinant virus obtained in this way is used to express the […] receptor in the cells of insects SF9 (ATCC CRL1711), according to the known methodology previously cited.
2×10^7 SF9 cells are cultivated in a 175 cm^2 “Falcon” flask in TNM-FH “SIGMA” medium supplemented with 10% of foetal calf serum (FCS) and 50 micrograms/ml of gentamycine. After infection then incubation at 27° C. for 40 to 42 hours, the cells are lysed in 1 ml of lyse buffer (Tris 20 mM-HCl pH8, EDTA 0.5 mM, DTT 2mM, Glycerol 20%, KCl 400 mM) by a freezing-defrosting cycle that is repeated twice more. The supernatant, containing the recombinant human oestrogen receptor is preserved in liquid nitrogen in 0.5 ml amounts.
The supernatant is incubated at 0° C. for 24 hours with a consistent concentration (T) of oestradiol tritiated in the presence of growing concentrations either of cold oestradiol (0-1000×10^−9M), or of cold product to be tested (0-25000×10^−9M). The concentration of linked triated oestradiol (B) is then measured in each incubation by the dextran carbon adsorption technique.
3—Calculation of the Affinity Relative to Linking (ARL)
The 2 following curves are plotted: the percentage of 100×B/BO linked tritiated hormone in comparison to the logarithm of the concentration of cold reference hormone or in comparison to the logarithm of the concentration of cold product tested.
The soundness of the following equation is determined:
B0=Concentration of the linked tritiated hormone in the absence of any cold product,
B=Concentration of the linked tritiated hormone in the presence of an X concentration of cold product,
Bmin=Concentration of linked tritiated hormone for an incubation of this tritiated hormone in concentration (T) in the presence of a large excess of cold reference hormone (1000×10^−9) for human receptor.
The intersections of the right angle I50 and the curves, make it possible to evaluate the concentration of cold reference hormone (CH) and the tested cold product (CX) which inhibit 50% of the bond of the tritiated hormone on the receptor.
The relative affinity of the link (ARL) of the tested product is determined by the equation: […]

[3] = incubation at 0° C. for 24 hours with tritiated oestradiol, ARL=100(CH)/(CX), oestradiol = 100

Row | Relative affinity of the link (ARL), EH oestradiol = 100, 24 H [2, 3] | SMILES | ACTIVITY (proliferative activity on MCF-7 cells) [1] | Relative affinity of the link (ARL), EH oestradiol = 100, 24 H [2]
1 | 28 | C[C@]12C[C@H](c3ccc(CCCN4CCCCC4)cc3)[C@@H]3c4ccc(O)cc4CC[C@H]3[C@@H]1CC[C@@H]2O [Example 9] | Inhibitor | –
2 | – | C[C@]12CC[C@@H]3c4ccc(O)cc4CC[C@H]3[C@@H]1CC[C@@H]2O [Oestradiol, reference compound] | Agonist | –
3 | 28 | CCN(CC)CCCc1ccc([C@H]2C[C@]3(C)[C@@H](O)CC[C@H]3[C@@H]3CCc4c(ccc(O)c4Cl)[C@H]32)cc1 [Example 12, 4-chloro-11β-[4-[3-(1-diethylamino)propyl]phenyl]-estra-1,3,5(10)-trien-3,17β-diol] | Inhibitor | –
4 | 42 | CC1(O)CCC2C3CCc4cc(O)ccc4C3C(c3ccc(CCCN4CCCCC4)cc3)CC21C (stereo not drawn) [Example 13, 17α-methyl-11β-[4-[3-(1-piperidininyl)propyl]phenyl]-estra-1,3,5(10)-trien-3,17β-diol] | Inhibitor | –
5 | – | C[C@]12C[C@H](c3ccc(CCCN4CCCC4)cc3)[C@@H]3c4ccc(O)cc4CC[C@H]3[C@@H]1CC[C@@H]2O [Example 7, 11β-[4-[3-(1-pyrrolidinyl)propyl]phenyl]-estra-1,3,5(10)-trien-3,17β-diol] | Inhibitor | 59
6 | – | C[C@]12C[C@H](c3ccc(CCCN4CCCCC4)cc3)[C@@H]3c4ccc(O)c(Cl)c4CC[C@H]3[C@@H]1CC[C@@H]2O [Example 11, 4-chloro-11β-[4-[3-(1-piperidinyl)propyl]phenyl]-estra-1,3,5(10) -trien-3,17β-diol] | Mixed | 14
